Source: patent US20240115557A1, “INHIBITORS OF RNA-GUIDED NUCLEASES AND USES THEREOF” (The Brigham and Women's Hospital, Inc., priority 2022, published 2024)

Columns and labels:
SpCas9 = SpCas9 (Streptococcus pyogenes serotype M1, UniProt Q99ZW2); test: Strand displacement assay (SDA) / cumulative activity assay (CAA), SpCas9 primary screen; format: biochemical; conditions: Primary Screen (150 min); for Average Normalized Z score: average of replicates; for Normalized Z score 1: replicate 1; for Normalized Z score 2: replicate 2
SpCas9, sequence (Q99ZW2 whole entry): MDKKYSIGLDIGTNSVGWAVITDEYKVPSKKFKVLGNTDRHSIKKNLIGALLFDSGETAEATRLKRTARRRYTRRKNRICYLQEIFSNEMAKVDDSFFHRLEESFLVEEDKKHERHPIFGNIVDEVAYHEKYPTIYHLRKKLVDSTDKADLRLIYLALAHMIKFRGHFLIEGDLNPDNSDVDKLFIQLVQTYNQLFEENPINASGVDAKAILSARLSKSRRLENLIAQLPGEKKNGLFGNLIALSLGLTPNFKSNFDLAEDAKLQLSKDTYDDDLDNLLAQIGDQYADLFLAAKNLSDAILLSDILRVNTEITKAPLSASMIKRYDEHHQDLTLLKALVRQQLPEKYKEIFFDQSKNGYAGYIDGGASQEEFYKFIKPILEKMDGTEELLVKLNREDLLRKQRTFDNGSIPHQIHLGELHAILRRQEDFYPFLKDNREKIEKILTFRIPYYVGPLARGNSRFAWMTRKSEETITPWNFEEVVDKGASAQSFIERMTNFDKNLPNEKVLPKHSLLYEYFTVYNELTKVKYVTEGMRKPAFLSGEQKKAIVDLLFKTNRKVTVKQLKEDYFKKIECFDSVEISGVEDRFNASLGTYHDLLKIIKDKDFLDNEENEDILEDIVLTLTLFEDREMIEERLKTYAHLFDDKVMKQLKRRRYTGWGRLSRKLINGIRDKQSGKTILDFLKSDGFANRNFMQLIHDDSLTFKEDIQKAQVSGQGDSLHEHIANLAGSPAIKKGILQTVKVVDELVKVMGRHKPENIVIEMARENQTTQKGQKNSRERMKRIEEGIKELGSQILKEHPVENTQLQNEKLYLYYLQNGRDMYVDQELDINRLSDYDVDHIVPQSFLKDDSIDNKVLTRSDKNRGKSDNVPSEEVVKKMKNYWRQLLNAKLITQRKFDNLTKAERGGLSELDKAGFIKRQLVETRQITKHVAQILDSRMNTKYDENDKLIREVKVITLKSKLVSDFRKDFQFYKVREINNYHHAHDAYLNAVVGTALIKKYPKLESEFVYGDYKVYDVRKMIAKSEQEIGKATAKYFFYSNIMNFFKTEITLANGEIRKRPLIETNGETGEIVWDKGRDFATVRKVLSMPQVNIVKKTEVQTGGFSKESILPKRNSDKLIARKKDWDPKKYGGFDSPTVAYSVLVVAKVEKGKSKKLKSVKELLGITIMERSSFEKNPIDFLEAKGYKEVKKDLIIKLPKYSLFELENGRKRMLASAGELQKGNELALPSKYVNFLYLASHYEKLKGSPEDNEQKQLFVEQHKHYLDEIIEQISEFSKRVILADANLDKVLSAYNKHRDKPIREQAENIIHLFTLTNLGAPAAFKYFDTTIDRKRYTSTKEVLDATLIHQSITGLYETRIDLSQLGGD
Procedure: Screening of inhibitors was via a high throughput pipeline, as depicted in FIG. 29. The first screening is via a strand displacement assay (SDA) for detecting nuclease activity (FIG. 27A, 28A). The Cpf1/Cas12 protein/DNA complex has a different structure from Cas9 and requires optimization of the potential fluorophore attachment sites (Yamano, T et al., Cell, 2016). (FIG. 28A). Next screened compounds are evaluated in an eGFP cell assay, and for eGFP dose. Those compounds are further narrowed via a HiBiT assay and finally evaluated in the surveyor assay. SAR evaluations are performed to arrive at lead compounds for further evaluations and variations. General methodology for the assays is as described in at [0253]-[0301] of U.S. Patent Application 62/831,143 filed Apr. 8, 2019, incorporated herein by reference.
The 3′ end of the displacing single-stranded DNA was labeled with a quencher. Following nuclease cleavage of the substrate, the 3′-labeled quenching DNA strand (present in excess) could outcompete the weakly held 3′ strand to anneal to the 5′ strand. The resulting FRET fluorescence quenching provides an optical readout for nuclease activity (FIG. 62A).
Typically, SpCas9: gRNA (1:1.2 ratio) RNP was pre-formed at 1 μM in Cas9 assay buffer (20 mM Tris-HCl, pH=7.5, 100 mM KCl, 5 mM MgCl2) for 5 min at 4° C. before diluting to 10 nM in Cas9 assay buffer (2× final concentration). 25 μL of the Cas9 2× stock was manually dispensed to a black 384-well plate (Corning 3575) using electronic pipette. […] Following this, pre-annealed Alexa-Fluor 647 labeled substrate and quencher were also diluted to 1 nM and 5 nM in Cas9 assay buffer, respectively (2× stock solution). Next, 25 μL of the substrate/quencher solution was added manually to each well of the Cas9-containing 384-well plates using an electronic pipette and was incubated at 37° C. for 2.5 h. Fluorescent signals were read with the microplate reader set to read Alexa-Fluor 647 fluorescence. Assay was performed similarly with SaCas9 and FnCas12a using the respective enzyme, gRNA, substrate, and quencher oligos. […]

SaCas9 = molecular target: T1, SaCas9 (Staphylococcus aureus, UniProt J7RUA5); test: Strand displacement assay, SaCas9 primary screen; format: biochemical; conditions: for Auto Zscore Rep 1 / Auto Zscore Rep 2 / Normalized Zscore Rep 1 / Normalized Zscore Rep 2: SaCas9 primary screen; for Auto Zscore Rep 1 / Normalized Zscore Rep 1: replicate 1; for Auto Zscore Rep 2 / Normalized Zscore Rep 2: replicate 2; for Normalized Zscore Rep 1 / Normalized Zscore Rep 2: weaker potential hits; for 3 sigma Hit: flag 1 = hit at 3 sigma; for 5 sigma Hit: flag 1 = hit at 5 sigma
T1 sequence (J7RUA5 1-1053): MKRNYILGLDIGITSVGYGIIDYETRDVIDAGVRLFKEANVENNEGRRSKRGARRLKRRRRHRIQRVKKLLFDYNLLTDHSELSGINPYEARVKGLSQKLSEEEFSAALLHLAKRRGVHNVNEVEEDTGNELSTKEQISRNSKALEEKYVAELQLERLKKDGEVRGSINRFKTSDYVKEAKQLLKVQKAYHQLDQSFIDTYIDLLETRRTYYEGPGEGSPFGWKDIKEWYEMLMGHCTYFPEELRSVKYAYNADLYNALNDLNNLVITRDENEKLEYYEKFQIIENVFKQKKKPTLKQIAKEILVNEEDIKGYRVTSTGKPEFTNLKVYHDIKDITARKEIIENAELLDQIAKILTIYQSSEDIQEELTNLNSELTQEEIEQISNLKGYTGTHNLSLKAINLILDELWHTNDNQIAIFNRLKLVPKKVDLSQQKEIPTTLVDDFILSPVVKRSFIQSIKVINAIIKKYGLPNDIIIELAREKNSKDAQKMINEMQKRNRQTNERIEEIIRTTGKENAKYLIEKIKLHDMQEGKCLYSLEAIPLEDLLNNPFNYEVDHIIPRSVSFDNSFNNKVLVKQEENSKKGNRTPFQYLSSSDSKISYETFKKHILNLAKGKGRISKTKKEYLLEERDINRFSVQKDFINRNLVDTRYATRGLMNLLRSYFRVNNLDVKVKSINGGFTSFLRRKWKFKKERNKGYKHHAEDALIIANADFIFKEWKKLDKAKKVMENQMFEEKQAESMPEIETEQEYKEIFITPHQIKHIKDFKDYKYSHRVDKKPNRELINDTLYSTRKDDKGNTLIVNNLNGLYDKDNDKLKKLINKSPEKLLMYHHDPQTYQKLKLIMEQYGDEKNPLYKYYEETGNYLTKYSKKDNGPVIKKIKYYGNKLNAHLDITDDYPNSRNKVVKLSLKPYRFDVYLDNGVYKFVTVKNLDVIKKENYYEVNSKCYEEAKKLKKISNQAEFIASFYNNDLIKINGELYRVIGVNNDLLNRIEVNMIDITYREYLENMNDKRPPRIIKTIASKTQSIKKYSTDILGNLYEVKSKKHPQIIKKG
Method in brief: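 Cas9 RNP (1:1.2 protein:gRNA) pre-formed in 20 mM Tris-HCl pH 7.5, 100 mM KCl, 5 mM MgCl2, used at 10 nM (2× stock) with Alexa-Fluor 647 substrate/quencher at 1 nM/5 nM (2× stock). Reaction ran 2.5 h at 37°C; strand displacement read as fluorescence. Hits called by Z-score: 3–5σ weak, >5σ strong.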

Row | Compound | avg z score primary (SpCas9) | Average Normalized Z score (SpCas9) | Normalized Z score 1 (SpCas9) | Normalized Z score 2 (SpCas9) | Auto Zscore Rep 1 (SaCas9) | Auto Zscore Rep 2 (SaCas9) | Normalized Zscore Rep 1 (SaCas9) | Normalized Zscore Rep 2 (SaCas9) | 3 sigma Hit (SaCas9) | 5 sigma Hit (SaCas9)
1 | Oc1c(C(c2cccs2)N2CCCCC2)ccc2cccnc12 (stereo not drawn) [Compound T0515-1927] | 10.34 | 0.68 | 0.70 | 0.67 |  |  |  |  |  | 
2 | O=C(COC(=O)c1cc(O)c(O)c(O)c1)NC1CCCc2ccccc21 (stereo not drawn) [Compound T0515-9025] | 4.00 | 0.25 | 0.26 | 0.23 |  |  |  |  |  | 
3 | Cc1ccc(Cl)cc1NC(=O)C1=NCCN1 [Compound T0519-9012] | 5.06 | 0.10 | 0.08 | 0.12 |  |  |  |  |  | 
4 | Cc1sc2nc3n(c(=O)c2c1-c1ccccc1)CCC3 [Compound T0520-0462] | 4.18 | 0.04 | 0.04 | 0.05 |  |  |  |  |  | 
5 | O=C(O)CSc1nnc(NC2CCCCC2)s1 [Compound T5211003] | 4.50 | 0.05 | 0.05 | 0.05 |  |  |  |  |  | 
6 | NC(=S)c1ccccn1 [Compound T5211106] | 3.58 | 0.04 | 0.04 | 0.04 |  |  |  |  |  | 
7 | CCc1ccc(NC(=O)C(C#N)=Cc2cc(C#N)n(C)c2C)cc1 [Compound T5229649] | 4.90 | 0.07 | 0.06 | 0.08 |  |  |  |  |  | 
8 | N=C1N=CC(=NNc2cc(C(=O)O)ccc2Cl)S1 [Compound T5253378] | 4.20 | 0.07 | 0.08 | 0.07 |  |  |  |  |  | 
9 | CCC(CC)NC(=O)c1ccc2ncsc2c1 [Compound T5324509] | 7.80 | 0.10 | 0.12 | 0.09 |  |  |  |  |  | 
10 | Cn1cccc1/C=C\C(=O)O [Compound T5365031] | 4.17 | 0.28 | 0.27 | 0.28 |  |  |  |  |  | 
11 | Cc1ccc(C)n1CCN1CCN(S(=O)(=O)c2ccccc2)CC1 [Cpd T0510-3387] |  |  |  |  | 1.126 | −0.9366 | 0.1436 | 0.1737 | 1 | 
12 | O=C(CSc1nnc2ccccn12)N1CCc2ccccc2C1 [Cpd T0512-2617] |  |  |  |  | −1.3165 | 0.881 | 0.3066 | 0.3358 | 1 | 1
13 | Cc1cc(Nc2ccccc2)n(-c2ccccc2C(=O)O)n1 [Cpd T0513-3165] |  |  |  |  | 0.05393 | −1.233 | 0.4933 | 0.4517 | 1 | 1
14 | O=C1CC(NC(=O)c2ccc(Cl)cc2)C(=O)N1 (stereo not drawn) [Cpd T0513-4457] |  |  |  |  | 0.257 | 0.3998 | 0.4361 | 0.4132 | 1 | 1
